Data on 32 molecules can be found in BindingDB's records for doi:10.1021/jm9905054 (Eisai, 2000).

A word on the pIC50: it is −log10 of the IC50, conventionally taken in molar units. Read a high pIC50 as a low IC50.

pIC50: −log10 of the molar value. Where a name gives a salt, the structure may show the parent alone.

The assay in a line: 50% inhibitory concentration against phosphodiesterase 5 (PDE5) from porcine platelets.
In turn, `COc1ccc(CNc2nnc(Cl)c3ccc(C#N)cc23)cc1Cl` had a pIC50 of 8.52. On to `COc1ccc(CNc2nnc(N3CC[S+]([O-])CC3)c3ccc(C#N)cc23)cc1Cl`, for which the pIC50 is 9.15. `COc1ccc(CNc2nnc(N3CCC(C(N)=O)CC3)c3ccc(C#N)cc23)cc1Cl` [1-[4-(3-Chloro-4-methoxy-benzylamino)-6-cyano-phthalazin-1-yl]-piperidine-4-carboxylic acid amide; hydrochloride] showed a pIC50 of 9.30.

With `COc1ccc(CNc2nnc(N3CCC(C(=O)O)CC3)c3ccc(C#N)cc23)cc1Cl` [1-[4-(3-Chloro-4-methoxy-benzylamino)-6-cyano-phthalazin-1-yl]-piperidine-4-carboxylic acid; hydrochloride], the pIC50 is 8.51. `COc1ccc(CNc2nnc(N3CCC(O)CC3)c3ccc([N+](=O)[O-])cc23)cc1Cl` [1-[4-(3-Chloro-4-methoxy-benzylamino)-6-nitro-phthalazin-1-yl]-piperidin-4-ol; hydrochloride] gave a pIC50 of 9.52. For `COc1ccc(CNc2nnc(N3CCC(O)CC3)c3ccc(C(F)(F)F)cc23)cc1Cl` [1-[4-(3-Chloro-4-methoxy-benzylamino)-6-trifluoromethyl-phthalazin-1-yl]-piperidin-4-ol; hydrochloride], the pIC50 is 9.14. The value for `COc1ccc(CNc2nnc(N3CCC(O)CC3)c3cc(Cl)c(Cl)cc23)cc1Cl` [1-[6,7-Dichloro-4-(3-chloro-4-methoxy-benzylamino)-phthalazin-1-yl]-piperidin-4-ol; hydrochloride] was 9.07; that for `COc1ccc(CNc2nnc(N3CCC(O)CC3)c3ccc(Cl)cc23)cc1Cl` [1-[6-Chloro-4-(3-chloro-4-methoxy-benzylamino)-phthalazin-1-yl]-piperidin-4-ol; hydrochloride] was 8.36; that for `COc1ccc(CNc2nnc(N3CCS(=O)(=O)CC3)c3ccc(C#N)cc23)cc1Cl` [4-(3-Chloro-4-methoxy-benzylamino)-1-(1,1-dioxo-1lambda*6*-thiomorpholin-4-yl)-phthalazine-6-carbonitrile; hydrochloride] was 9.10. The molecule `COc1ccc(CNc2nnc(N3CC=CCC3)c3ccc(C#N)cc23)cc1Cl` [4-(3-Chloro-4-methoxy-benzylamino)-1-(3,6-dihydro-2H-pyridin-1-yl)-phthalazine-6-carbonitrile; hydrochloride] gave a pIC50 of 8.72. The molecule `COc1ccc(CNc2nnc(N3CCCC(O)C3)c3ccc(C#N)cc23)cc1Cl` (configuration not stated) [4-(3-Chloro-4-methoxy-benzylamino)-1-(3-hydroxy-piperidin-1-yl)-phthalazine-6-carbonitrile; hydrochloride] gave a pIC50 of 8.92. `COc1ccc(CNc2nnc(NCCCO)c3ccc(C#N)cc23)cc1Cl` [4-(3-Chloro-4-methoxy-benzylamino)-1-(3-hydroxy-propylamino)-phthalazine-6-carbonitrile; hydrochloride] gave a pIC50 of 8.59.

For the molecule `COc1ccc(CNc2nnc(N3CCC(C)(O)CC3)c3ccc(C#N)cc23)cc1Cl` [4-(3-Chloro-4-methoxy-benzylamino)-1-(4-hydroxy-4-methyl-piperidin-1-yl)-phthalazine-6-carbonitrile; hydrochloride], the pIC50 is 9.15. As for `COc1ccc(CNc2nnc(N[C@H]3CC[C@H](O)CC3)c3ccc(C#N)cc23)cc1Cl` [4-(3-Chloro-4-methoxy-benzylamino)-1-(4-hydroxy-cyclohexylamino)-phthalazine-6-carbonitrile; hydrochloride], the pIC50 is 7.92. `COc1ccc(CNc2nnc(N3CCC(O)CC3)c3ccc(C(N)=O)cc23)cc1Cl` [4-(3-Chloro-4-methoxy-benzylamino)-1-(4-hydroxy-piperidin-1-yl)-phthalazine-6-carboxylic acid amide; hydrochloride] showed a pIC50 of 8.70. For `COc1ccc(CNc2nnc(N3CCC(O)CC3)c3ccc(C(=O)O)cc23)cc1Cl` [4-(3-Chloro-4-methoxy-benzylamino)-1-(4-hydroxy-piperidin-1-yl)-phthalazine-6-carboxylic acid; hydrochloride] the value was 6.22; for `COc1ccc(CNc2nnc(N3CCC(CO)CC3)c3ccc(C#N)cc23)cc1Cl` [4-(3-Chloro-4-methoxy-benzylamino)-1-(4-hydroxymethyl-piperidin-1-yl)-phthalazine-6-carbonitrile; hydrochloride], 9.03. As for `COc1ccc(CNc2nnc(N3CCC(OC)CC3)c3ccc(C#N)cc23)cc1Cl` [4-(3-Chloro-4-methoxy-benzylamino)-1-(4-methoxy-piperidin-1-yl)-phthalazine-6-carbonitrile; hydrochloride], the negative logarithm of the IC50 (pIC50) is 8.96. `COc1ccc(CNc2nnc(N3CCN(C)CC3)c3ccc(C#N)cc23)cc1Cl` [4-(3-Chloro-4-methoxy-benzylamino)-1-(4-methyl-piperazin-1-yl)-phthalazine-6-carbonitrile; hydrochloride]: the pIC50 is 9.02. `COc1ccc(CNc2nnc(N3CCC(=O)CC3)c3ccc(C#N)cc23)cc1Cl` [4-(3-Chloro-4-methoxy-benzylamino)-1-(4-oxo-piperidin-1-yl)-phthalazine-6-carbonitrile; hydrochloride] showed a pIC50 of 9.28. The molecule `COc1ccc(CNc2nnc(N3CCN(c4ccccn4)CC3)c3ccc(C#N)cc23)cc1Cl` [4-(3-Chloro-4-methoxy-benzylamino)-1-(4-pyridin-2-yl-piperazin-1-yl)-phthalazine-6-carbonitrile; hydrochloride] showed a pIC50 of 7.96. Take `COc1ccc(CNc2nnc(N3CCN(c4ncccn4)CC3)c3ccc(C#N)cc23)cc1Cl` [4-(3-Chloro-4-methoxy-benzylamino)-1-(4-pyrimidin-2-yl-piperazin-1-yl)-phthalazine-6-carbonitrile; hydrochloride]: the pIC50 is 7.72. Take `COc1ccc(CNc2nnc(N3CCN(CCO)CC3)c3ccc(C#N)cc23)cc1Cl` [4-(3-Chloro-4-methoxy-benzylamino)-1-[4-(2-hydroxy-ethyl)-piperazin-1-yl]-phthalazine-6-carbonitrile; hydrochloride]: the pIC50 was 8.77. The value for `COc1ccc(CNc2nnc(N3CCC(CCO)CC3)c3ccc(C#N)cc23)cc1Cl` [4-(3-Chloro-4-methoxy-benzylamino)-1-[4-(2-hydroxy-ethyl)-piperidin-1-yl]-phthalazine-6-carbonitrile; hydrochloride] was 9.15; that for `COc1ccc(CNc2nnc(NCc3ccccn3)c3ccc(C#N)cc23)cc1Cl` [4-(3-Chloro-4-methoxy-benzylamino)-1-[(pyridin-2-ylmethyl)-amino]-phthalazine-6-carbonitrile; hydrochloride] was 8.57. For `COc1ccc(CNc2nnc(NCc3cccnc3)c3ccc(C#N)cc23)cc1Cl` [4-(3-Chloro-4-methoxy-benzylamino)-1-[(pyridin-3-ylmethyl)-amino]-phthalazine-6-carbonitrile; hydrochloride], the pIC50 is 8.17. `COc1ccc(CNc2nnc(NCc3ccncc3)c3ccc(C#N)cc23)cc1Cl` [4-(3-Chloro-4-methoxy-benzylamino)-1-[(pyridin-4-ylmethyl)-amino]-phthalazine-6-carbonitrile; hydrochloride] showed a pIC50 of 8.17. The value for `COc1ccc(CNc2nnc(-n3ccnc3)c3ccc(C#N)cc23)cc1Cl` [4-(3-Chloro-4-methoxy-benzylamino)-1-imidazol-1-yl-phthalazine-6-carbonitrile; hydrochloride] was 8.82; that for `COc1ccc(CNc2nnc(N3CCNCC3)c3ccc(C#N)cc23)cc1Cl` [4-(3-Chloro-4-methoxy-benzylamino)-1-piperazin-1-yl-phthalazine-6-carbonitrile; hydrochloride] was 8.92; that for `COc1ccc(CNc2nnc(N3CCCCC3)c3ccc(C#N)cc23)cc1Cl` [4-(3-Chloro-4-methoxy-benzylamino)-1-piperidin-1-yl-phthalazine-6-carbonitrile; hydrochloride] was 9.26. For `COc1ccc(CNc2nnc(N3CCSCC3)c3ccc(C#N)cc23)cc1Cl` [4-(3-Chloro-4-methoxy-benzylamino)-1-thiomorpholin-4-yl-phthalazine-6-carbonitrile; hydrochloride] the value was 9.49; for `COc1ccc(CNc2nnc(N3CCC(NS(C)(=O)=O)CC3)c3ccc(C#N)cc23)cc1Cl` [N-{1-[4-(3-Chloro-4-methoxy-benzylamino)-6-cyano-phthalazin-1-yl]-piperidin-4-yl}-methanesulfonamide; hydrochloride], 7.85.
